According to patent US12516052B2, “Methyltransferase 5 (PRMT5) inhibitors and methods of treatment” (THE TRUSTEES OF INDIANA UNIVERSITY, priority 2016, dated 2026):
“Also recorded” adds a separate entry of the source. Values belong to the molecule of their own block, whether it stands above or below them.

Legend:
PRMT5 = target: T1, PRMT5 (Homo sapiens, UniProt O14744); experiment: AlphaLISA PRMT5 methylation assay (biotin-histone H4R3, SAM); assay type: biochemical; settings: PRMT5 methylation of histone H4R3, in vitro; read-out: IC50 using AlphaLISA
T1 construct: Flag; made in house; host or cells: 293 cells
Experimental: FIG. 1 is a schematic illustration of the AlphaLISA technique for the identification of small-molecule PRMT5 inhibitors. Biotinylated substrate (histone H4) is incubated with PRMT5 and methyl donor, S-adenosyl-1-methionine (SAM). PRMT5 symmetrically dimethylates the third arginine (R3) on biotin-H4 to form biotin-H4R3me2. This product is recognized by Acceptor beads specific for this methylation site. Donor beads have a streptavidin tag and bind to biotin-H4. Interaction between the Acceptor and Donor beads emits a chemiluminescent signal, which is detected by an ENVISION™ Reader (PerkinElmer, Waltham, MA). The methylation activity of PRMT5 is proportional to the intensity of this signal.
In order to identify PRMT5 inhibitors, the AlphaLISA technique (PerkinElmer, Waltham, MA) was adapted to an assay that could precisely quantify PRMT5 dimethylation of its substrate in a 384-well HTS platform (FIG. 1). The AlphaLISA high-throughput screen comprises incubating a biotinylated substrate (e.g., histone H4), PRMT5, and a methyl donor (e.g., S-adenosyl-1-methionine (SAM)); PRMT5 dimethylates the biotinylated substrate and the dimethylated biotinylated substrate is recognized by Acceptor beads specific for the methylation site. Donor beads comprising a tag (e.g., streptavadin) bind to the biotinylated substrate, and interaction between the Acceptor beads and Donor beads emits a signal (e.g., chemiluminescent signal), which can be detected. The methylation activity of PRMT5 is proportional to the intensity of the signal.
In one embodiment of the method used to identify the compounds disclosed herein, PRMT5 enzyme was purified with anti-Flag-M2 beads (Sigma-Aldrich, St. Louis, MO) from 293 cells overexpressing the Flag-PRMT5 protein (Wei et al., Proc Natl Acad Sci USA, 2013; 110: 13516-13521). The enzyme prep was diluted at 1:10 in assay buffer (30 mM Tris, pH 8.0, 1 mM DTT, 0.01% BSA, 0.01% Tween-20) before use. […] The plates were read using an ENVISION™ Reader (PerkinElmer, Waltham, MA).

[1] = system: PDAC cells (PANC1, MiaPaCa2 and AsPC1); experiment: MTT cell viability assay in PDAC cell lines; assay type: cell-based; settings: for cell viability in PDAC cells (PANC1, MiaPaCa2, AsPC1), MTT: increasing concentrations; for IC50: range over PANC1, MiaPaCa2 and AsPC1
Experimental: (§1) The PRMT5 inhibitory activity of the compounds from the screen was confirmed using both AlphaLISA and an MTT [(3-(4,5-dimethylthiazolyl-2)-2,5-diphenyltetrazolium bromide)] assay (PerkinElmer, Waltham, MA). For the MTT assay, cells were seeded at 90% confluence in 96-well plates and titrated with different dosages of compound (IIa) for 4 days. Media was then removed and 100 μl of MTT (Sigma-Aldrich, St. Louis, MO) was added per well. Cells were incubated for 2 hours at 37° C. before adding 100 μl of DMSO to each well and quantified with the SYNERGY™ H1 Multi-Mode Reader (BioTek Instruments Inc., Winooski, VT). The expression of PRMT5 was examined in pancreatic ductal adenocarcinoma cells at multiple stages of disease progression and in multiple colorectal cancer cell lines. Pancreatic control (HPNE) and cancer cell lines (PANC1, MiaPaCa2 and AsPC1) were grown in Dulbecco's Modified Eagle Medium (DMEM) (GE Healthcare, Little Chalfont, UK), supplemented with 1% of penicillin/streptomycin, 10% fetal bovine serum (FBS). Colon control (FHC) and cancer (HT29, HCT116, and DLD1) cell lines were maintained in RPMI 1640 Medium (Roswell Park Memorial Institute Medium) (GE Healthcare, Little Chalfont, UK), containing 1% penicillin/streptomycin and 10% FBS, while FHC cells were cultured under the same condition with further addition of 25 mM HEPES (4-(2-hydroxyethyl)-1-piperazineethanesulfonic acid), 10 ng/ml cholera toxin, 0.005 mg/ml insulin, 0.005 mg/ml transferring, and 100 ng/ml hydrocortisone. All cell lines were cultured at 37° C. under 5% CO2. The PDAC and CRC cell lines described above were treated with increasing concentrations of compound (IIa) or the commercially available PRMT5 inhibitor EPZ015666 [drawing 12] and quantified for cell viability using the MTT assay described above. […] A soft agar experiment was also performed to determine the effect of compound (IIa) on colony growth.

[2] = system: CRC cells (HT29, HCT116 and DLD1); experiment: MTT cell viability assay in CRC cell lines; assay type: cell-based; settings: for cell viability in CRC cells (HT29, HCT116, DLD1), MTT: increasing concentrations; for IC50: range over HT29, HCT116 and DLD1
Experimental: as §1

[3] = system: PANC1 pancreatic cancer cells; experiment: MTT cell viability assay in PANC1 cells; assay type: cell-based; settings: for IC50: 4 days treatment
Experimental: (§2) The PRMT5 inhibitory activity of the compounds from the screen was confirmed using both AlphaLISA and an MTT [(3-(4,5-dimethylthiazolyl-2)-2,5-diphenyltetrazolium bromide)] assay (PerkinElmer, Waltham, MA). For the MTT assay, cells were seeded at 90% confluence in 96-well plates and titrated with different dosages of compound (IIa) for 4 days. Media was then removed and 100 μl of MTT (Sigma-Aldrich, St. Louis, MO) was added per well. Cells were incubated for 2 hours at 37° C. before adding 100 μl of DMSO to each well and quantified with the SYNERGY™ H1 Multi-Mode Reader (BioTek Instruments Inc., Winooski, VT).
(§3) In order to identify small-molecule PRMT5 inhibitors with increased efficacy compared to compound (IIa), lead optimization of compound (IIa) was performed. Briefly, the pyrozolo-pyrimidine core was maintained and peripheral groups were either added or modified. Compounds were tested to identify PRMT5 inhibitors and their corresponding IC50 values using an MTT assay. For the MTT assay cells (HT-29 or PANC1) were seeded at 90% confluence in 96-well plates and titrated with different dosages of compound (IIa) for 4 days. Media was then removed and 100 μl of MTT (Sigma-Aldrich) was added per well. Cells were incubated for 2 hours at 37° C. before adding 100 μl of DMSO to each well and quantified with the Synergy H1 Multi-Mode Reader (BioTek Instruments Inc., Winooski, VT).

HT-29 colon cancer cells = experiment: MTT cell viability assay in HT-29 cells; assay type: cell-based; settings: for IC50: 4 days treatment
Experimental: as §2, §3

NF-κB [4] = experiment: NF-κB luciferase assay in PANC1 cells; assay type: cell-based; settings: increasing concentrations
Text: (§4) Previously, it was discovered that PRMT5 activates NF-κB through methylation of its p65 subunit in HEK293 cells (Wei et al., Proc Natl Acad Sci USA, 2013; 110: 13516-13521; Wei et al., Cell Cycle, 2013; 13: 32-41). As shown in FIGS. 11A and 11B, overexpression of PRMT5 enhances NF-κB activity, while PRMT5 knockdown causes the opposite effect in both PANC1 (FIG. 11A) and HT-29 (FIG. 11B) cells. To determine if compound (IIa) decreases NF-κB activity, cells transfected with a NF-κB luciferase construct were treated with increasing concentrations of compound (IIa) or the control compound EPZ015666.

NF-κB [5] = experiment: NF-κB luciferase assay in HT29 cells; assay type: cell-based; settings: increasing concentrations
Text: as §4

HT29 cells = experiment: HT29 subcutaneous xenograft tumor efficacy study in NSG mice; assay type: in vivo; settings: 20 mg/kg intraperitoneally 3×/week, vs vehicle control, n=4
Experimental: (§5) NSG (NOD scid gamma) mice were obtained from the In Vivo Therapeutics Core at Indiana University School of Medicine. After acclimation for 7 days, NSG mice (6-8 weeks old) were xenografted with mycoplasma-free PANC1 or HT29 cells subcutaneously (1×10^7 PANC1 or 3×10^6 HT29 cells used per mouse in 0.2 ml of a 1:1 mix of phosphate-buffered saline and MATRIGEL™) (BD Biosciences, San Jose, CA). Mice were randomized when tumor volumes reached about 100 mm^3. Mice were treated with either vehicle control or 20 mg/kg of compound (Ia) (drug stock dissolved in 1:1 CREMOPHOR™:ethanol solution) intraperitoneally 3 times per week. Tumor volumes and body weights were measured twice a week. The study was performed in accordance with the guidelines and standards of the Institutional Animal Care and Use Committee (IACUC). […] NSG (NOD scid gamma) mice were obtained from the In Vivo Therapeutics Core at Indiana University School of Medicine. After acclimation for 7 days, NSG mice (6-8 weeks old) were xenografted with mycoplasma-free PANC1 or HT29 cells subcutaneously (1×10^7 PANC1 or 3×10^6 HT29 cells used per mouse in 0.2 ml of a 1:1 mix of phosphate-buffered saline and MATRIGEL™) (BD Biosciences, San Jose, CA). Mice were randomized when tumor volumes reached about 100 mm^3. […] Tumor volumes and body weights were measured twice a week. […]

PANC1 cells = experiment: PANC1 subcutaneous xenograft tumor efficacy study in NSG mice; assay type: in vivo; settings: 20 mg/kg intraperitoneally 3×/week, vs vehicle control, n=4
Experimental: as §5

[6] = Body weight of xenografted NSG mice during treatment; assay type: in vivo; settings: 20 mg/kg intraperitoneally 3×/week, over the course of treatment
Experimental: NSG (NOD scid gamma) mice were obtained from the In Vivo Therapeutics Core at Indiana University School of Medicine. After acclimation for 7 days, NSG mice (6-8 weeks old) were xenografted with mycoplasma-free PANC1 or HT29 cells subcutaneously (1×10^7 PANC1 or 3×10^6 HT29 cells used per mouse in 0.2 ml of a 1:1 mix of phosphate-buffered saline and MATRIGEL™) (BD Biosciences, San Jose, CA). Mice were randomized when tumor volumes reached about 100 mm^3. Mice were treated with either vehicle control or 20 mg/kg of compound (Ia) (drug stock dissolved in 1:1 CREMOPHOR™:ethanol solution) intraperitoneally 3 times per week. Tumor volumes and body weights were measured twice a week. The study was performed in accordance with the guidelines and standards of the Institutional Animal Care and Use Committee (IACUC). […] NSG (NOD scid gamma) mice were obtained from the In Vivo Therapeutics Core at Indiana University School of Medicine. After acclimation for 7 days, NSG mice (6-8 weeks old) were xenografted with mycoplasma-free PANC1 or HT29 cells subcutaneously (1×10^7 PANC1 or 3×10^6 HT29 cells used per mouse in 0.2 ml of a 1:1 mix of phosphate-buffered saline and MATRIGEL™) (BD Biosciences, San Jose, CA). Mice were randomized when tumor volumes reached about 100 mm^3. Mice were treated with either vehicle control or 20 mg/kg of compound (IIa) (drug stock dissolved in 1:1 CREMOPHOR™:ethanol solution) intraperitoneally 3 times per week. Tumor volumes and body weights were measured twice a week. The study was performed in accordance with the guidelines and standards of the Institutional Animal Care and Use Committee (IACUC).

T1 sequence (O14744 whole entry): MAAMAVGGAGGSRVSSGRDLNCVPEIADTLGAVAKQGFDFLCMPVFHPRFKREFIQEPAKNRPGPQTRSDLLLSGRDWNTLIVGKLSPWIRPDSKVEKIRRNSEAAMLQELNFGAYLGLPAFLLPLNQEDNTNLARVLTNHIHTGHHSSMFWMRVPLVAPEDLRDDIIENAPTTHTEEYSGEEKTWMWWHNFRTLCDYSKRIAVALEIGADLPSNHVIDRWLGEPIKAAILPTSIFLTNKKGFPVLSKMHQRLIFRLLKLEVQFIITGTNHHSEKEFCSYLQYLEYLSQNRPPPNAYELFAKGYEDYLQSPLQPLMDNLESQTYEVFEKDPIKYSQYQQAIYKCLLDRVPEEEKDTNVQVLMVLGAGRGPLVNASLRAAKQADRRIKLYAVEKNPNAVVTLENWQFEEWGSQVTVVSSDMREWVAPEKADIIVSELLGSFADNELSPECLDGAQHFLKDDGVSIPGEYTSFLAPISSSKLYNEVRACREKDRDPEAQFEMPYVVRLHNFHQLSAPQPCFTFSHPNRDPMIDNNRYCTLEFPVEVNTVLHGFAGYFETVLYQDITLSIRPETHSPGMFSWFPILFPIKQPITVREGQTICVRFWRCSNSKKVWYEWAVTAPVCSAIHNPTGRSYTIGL
T1 sequence (Q9BQA1 whole entry partner): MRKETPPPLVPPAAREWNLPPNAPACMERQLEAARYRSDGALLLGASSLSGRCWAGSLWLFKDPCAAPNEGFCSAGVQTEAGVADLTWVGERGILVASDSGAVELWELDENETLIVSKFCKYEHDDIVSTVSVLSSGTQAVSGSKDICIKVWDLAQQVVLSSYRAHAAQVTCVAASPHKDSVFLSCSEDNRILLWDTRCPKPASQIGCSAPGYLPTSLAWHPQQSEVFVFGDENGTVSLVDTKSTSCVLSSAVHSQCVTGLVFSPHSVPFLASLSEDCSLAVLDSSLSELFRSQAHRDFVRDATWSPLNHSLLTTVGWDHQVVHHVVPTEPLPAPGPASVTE

IC50 [3]: 11 µM | IC50 (HT-29 colon cancer cells): 7 µM
SMILES: Clc1ccc(-n2ncc3c(NCC4CCCO4)nc(Cl)nc32)cc1 (centres unmarked) [compound (Ig)]

IC50 ([3]; Homo sapiens, PANC-1, 96 h): 11 µM
SMILES: Clc1ccc(-n2ncc3c(NCCN4CCCC4)nc(Cl)nc32)cc1 [compound (Ib)]

IC50 (HT-29 colon cancer cells): 2.2 µM | IC50 (HT-29 colon cancer cells; Homo sapiens, HT-29, 96 h): 2 µM
SMILES: Cc1ccc(-n2ncc3c(NCc4cccnc4)nc(Cl)nc32)cc1 [compound (Ia)]
cell viability in PDAC cells (PANC1), MTT ([3]; increasing concentrations): decreased significantly | tumor growth (tumor volume), HT29 xenograft (HT29 cells): significant tumor inhibition effect; also recorded: inhibition of tumor growth | tumor growth (tumor volume), PANC1 xenograft (PANC1 cells): significant tumor inhibition effect; also recorded: inhibition of tumor growth | cell viability in CRC cells (HT29), MTT (HT-29 colon cancer cells; increasing concentrations): decreased significantly | body weight, HT29 model [6]: did not visibly affect the body weight; also recorded: no significant changes in body weight | body weight, PANC1 model [6]: did not visibly affect the body weight; also recorded: no significant changes in body weight

IC50 ([3]; Homo sapiens, PANC-1, 96 h): 8 µM | IC50 (HT-29 colon cancer cells; Homo sapiens, HT-29, 96 h): 7 µM
SMILES: Clc1ccc(-n2ncc3c(NCC4CCCO4)nc(Cl)nc32)cc1 (centres unmarked) [compound (If)]

More lines, now with the values behind:

SMILES: O=C(NC[C@H]1C[C@@H]2CC[N@@]1C[C@@H]2CN1CCC(Cc2ccccc2)CC1)c1ccc2c(c1)OCO2 [compound (IIIa)]
IC50 (PRMT5): ~1.5 µM | cell viability in PDAC cells (PANC1, MiaPaCa2, AsPC1), MTT [1]: decreased significantly | IC50 [1]: 8.5 to 12.5 µM | cell viability in CRC cells (HT29, HCT116, DLD1), MTT [2]: decreased significantly | IC50 [2]: 5 to 11 µM

SMILES: O=C(NC[C@H](O)CN1CCc2ccccc2C1)c1cc(NC2COC2)ncn1 [EPZ015666, reference compound]
cell viability in PDAC cells (PANC1, MiaPaCa2, AsPC1), MTT [1]: lower efficacy | IC50 [1]: 50 to 95 µM | NF-κB activation (luciferase), PANC1 (NF-κB [4]): much higher concentration; also recorded: needed a higher concentration | cell viability in CRC cells (HT29, HCT116, DLD1), MTT [2]: lower efficacy | IC50 [2]: 180 to 195 µM | NF-κB activation (luciferase), HT29 (NF-κB [5]): much higher concentration; also recorded: needed a higher concentration

SMILES: COc1cc(C)c(Oc2cc(C)cc(O)c2O)c(O)c1 [compound (IVa)]
IC50 (PRMT5): ~16.5 µM | cell viability in PDAC cells (PANC1, MiaPaCa2, AsPC1), MTT [1]: decreased significantly | IC50 [1]: 22 to 51 µM | cell viability in CRC cells (HT29, HCT116, DLD1), MTT [2]: decreased significantly | IC50 [2]: 35 to 50 µM
